Experimental data taken from patent US6495133B1, “Gliocladium roseum strains useful for the control of fungal pathogens in plants” (priority 1998, dated 2002).
Read-outs that look alike come from different tables or passages of the source.

Legend:
[1] = tested on: Fusarium oxysporium; assay: Control of fusarium wilt in field pea, field experiments; type: in vivo
[2] = tested on: field pea; assay: Comparison and compatibility of ACM941 with thiram fungicide, field pea, field experiments; type: in vivo
[3] = tested on: field pea; assay: Effect of seeding dates on efficacy of seed treatment, field experiments; type: in vivo; on Yield: unit not given here
[4] = tested on: Mycosphaerella pinodes; assay: Control of mycosphaerella seedling blight/root rot in field pea, field experiments; type: in vivo
[5] = tested on: Rhizoctonia solani; assay: Control of rhizoctonia root rot in field pea, field experiments; type: in vivo
[6] = tested on: Fusarium oxysporum; assay: Control of fusarium wilt in field pea, growth room experiments; conditions: Field pea (cv. Radley)
Experimental: (§1) In growth room experiments, seeds were planted in wood planting flats (35.5×47.0×9.0 cm) containing soil mixture of 2:1:1 of soil, perlite and peat moss. The soil mixture was pasteurized and mixed at about 2% v/v with artificially infested vermiculite that was moistened with 0.4% malt extract, autoclaved, inoculated with B. solani, and incubated at 20° C. for 7 days prior to the planting. […] For each treatment 100 seeds were planted in each of the 4-replicate flats. The planted flats were placed in a growth room maintained at 20° C. and with a 14-h photoperiod at 350 mol.m^−2.s^−1 light intensity by fluorescent and incandescent lamps. All experiments were arranged in a completely randomized block design. Emergence was counted 7 days after planting and other parameters were assessed after digging out plants 14 to 16 days after planting. Disease severity was rated on a scale of 0 (no visible lesions on lower stem and roots, seedling is well developed) to 9 (death of plant, the seedling died back quickly after emergence).

[7] = tested on: Sclerotinia sclerotiorum; assay: Control of sclerotinia rot in field pea, field experiments; type: in vivo
[8] = tested on: Mycosphaerella pinodes; assay: Control of mycosphaerella seedling blight/root rot in field pea, growth room experiments; conditions: Field pea (cv. Radley)
Experimental: as §1

[9] = tested on: Fusarium solani; assay: Control of fusarium root rot in field pea, growth room experiments; conditions: Field pea (cv. Radley)
Experimental: as §1

[10] = tested on: Sclerotinia sclerotiorum; assay: Control of sclerotinia rot in field pea, growth room experiments
Experimental: as §1
The seed treatment procedures, inoculum preparation, inoculation and assessment methods for both growth room and field experiments were the same as described above.

[11] = tested on: Aphanomyces euteiches; assay: Control of aphanomyces root rot in field pea, field experiments; type: in vivo
[12] = tested on: Fusarium solani; assay: Control of fusarium root rot in field pea, field experiments; type: in vivo
[13] = tested on: Fusarium graminearum, Bipolaris sorokiniana, F. avenaceum, Alternaria alternata, and other Fusarium species (naturally infected seeds); type: in vivo
[14] = Lacombe site, average of two cultivars and two years
[15] = Morden site, average of two cultivars and two years
[16] = Optimum seeding, 1995, AC Tamor
[17] = Optimum seeding, 1996, AC Tamor
[18] = barley, average of the two cultivars

Which results are given for `CN(C)C(=S)SSC(=S)N(C)C` [Thiram, thiram]?
Emergence ([1]; 1996, AC Tamor): 78.3 a; Yield ([1]; 1996, AC Tamor): 5203 a; Emergence ([1]; 1996, Radley): 85.9 ab; Yield ([1]; 1996, Radley): 2442 a; Emergence ([1]; 1997, AC Tamor): 84.0 a; Yield ([1]; 1997, AC Tamor): 6625 a; Emergence ([1]; 1997, Radley): 63.8 ab; Yield ([1]; 1997, Radley): 5037 b; increased emergence by [2, 14]: 4%; reduced yield by [2, 14]: 4%; Emergence ([2]; Lacombe, Alberta, 1996, Grande): 87.2 a; Yield ([2]; Lacombe, Alberta, 1996, Grande): 8729 a; Emergence ([2]; Lacombe, Alberta, 1996, Radley): 84.0 a; Yield ([2]; Lacombe, Alberta, 1996, Radley): 5782 a; Emergence ([2]; Lacombe, Alberta, 1997, Grande): 67.0 b; Yield ([2]; Lacombe, Alberta, 1997, Grande): 6507 b; Emergence ([2]; Lacombe, Alberta, 1997, Radley): 87.3 a; Yield ([2]; Lacombe, Alberta, 1997, Radley): 4300 a; increased emergence by [2, 15]: 38%; increased yield by [2, 15]: 29%; Emergence ([2]; Morden, Manitoba, 1996, Grande): 64.9 a; Yield ([2]; Morden, Manitoba, 1996, Grande): 4541 a; Emergence ([2]; Morden, Manitoba, 1996, Radley): 74.1 a; Yield ([2]; Morden, Manitoba, 1996, Radley): 3286 a; Emergence ([2]; Morden, Manitoba, 1997, Grande): 65.0 a; Yield ([2]; Morden, Manitoba, 1997, Grande): 1878 a; Emergence ([2]; Morden, Manitoba, 1997, Radley): 79.1 a; Yield ([2]; Morden, Manitoba, 1997, Radley): 1064 c; increased yield by ([2]; average of the four station years, two sites): 12%; Emergence ([3]; Early seeding, 1995, AC Tamor): 66.7 a; Yield ([3]; Early seeding, 1995, AC Tamor): 4934 a; Emergence ([3]; Early seeding, 1995, Radley): 72.4 a; Yield ([3]; Early seeding, 1995, Radley): 4566 a; Emergence ([3]; Early seeding, 1996, AC Tamor): 81.6 a; Yield ([3]; Early seeding, 1996, AC Tamor): 2069 b; Emergence ([3]; Early seeding, 1996, Radley): 79.5 a; Yield ([3]; Early seeding, 1996, Radley): 1295 a; Emergence ([3]; Late seeding, 1995, AC Tamor): 35.8 b; Yield ([3]; Late seeding, 1995, AC Tamor): 2454 a; Emergence ([3]; Late seeding, 1995, Radley): 55.0 a; Yield ([3]; Late seeding, 1995, Radley): 3235 a; Emergence ([3]; Late seeding, 1996, AC Tamor): 87.2 a; Yield ([3]; Late seeding, 1996, AC Tamor): 2857 a; Emergence ([3]; Late seeding, 1996, Radley): 84.7 a; Yield ([3]; Late seeding, 1996, Radley): 1706 a; Emergence [3, 16]: 62.8 a; Yield [3, 16]: 3855 a; Emergence ([3]; Optimum seeding, 1995, Radley): 81.3 a; Yield ([3]; Optimum seeding, 1995, Radley): 2901 a; Emergence [3, 17]: 75.5 a; Yield [3, 17]: 3152 a; Emergence ([3]; Optimum seeding, 1996, Radley): 84.7 a; Yield ([3]; Optimum seeding, 1996, Radley): 1580 a; Emergence ([4]; 1996, AC Tamor): 76.3 a; Yield ([4]; 1996, AC Tamor): 2140 ab; Emergence ([4]; 1996, Radley): 84.5 a; Yield ([4]; 1996, Radley): 1623 a; Emergence ([4]; 1997, AC Tamor): 80.0 a; Yield ([4]; 1997, AC Tamor): 5645 a; Emergence ([4]; 1997, Radley): 80.2 a; Yield ([4]; 1997, Radley): 3328 a; Emergence ([5]; 1996, AC Tamor): 45.5 a; Yield ([5]; 1996, AC Tamor): 2497 a; Emergence ([5]; 1996, Radley): 47.4 a; Yield ([5]; 1996, Radley): 1589 a; increased emergence by ([5]; 1996, average of two varieties): 2%; reduced yield by ([5]; 1996, average of two varieties): 12.5%; effect on emergence [5]; 1997: increased emergence significantly; effect on yield [5]; 1997: did not increase the yield; Emergence ([5]; 1997, AC Tamor): 76.0 a; Yield ([5]; 1997, AC Tamor): 5367 a; Emergence ([5]; 1997, Radley): 58.6 b; Yield ([5]; 1997, Radley): 4666 a; Dry wt. [6]: 0.34 a g/plant; Emergence [6]: 86.3 a %; Fresh wt. [6]: 3.1 a g/plant; Root rot severity [6]: 1.3 a 0-9; Emergence ([7]; 1996, AC Tamor): 41.8 a; Yield ([7]; 1996, AC Tamor): 4327 a; Emergence ([7]; 1996, Radley): 48.9 a; Yield ([7]; 1996, Radley): 2598 a; Emergence ([7]; 1997, AC Tamor): 49.7 a; Yield ([7]; 1997, AC Tamor): 5402 b; Emergence ([7]; 1997, Radley): 50.5 a; Yield ([7]; 1997, Radley): 5049 a; Dry wt. [8]: 0.32 a g/plant; Emergence [8]: 67.5 a %; Fresh wt. [8]: 3.1 a g/plant; Root rot severity [8]: 2.3 a 0-9; Dry wt. [9]: 0.27 a g/plant; Emergence [9]: 57.5 a %; Fresh wt. [9]: 2.7 a g/plant; Root rot severity [9]: 3.3 ab 0-9; Dry wt. ([10]; Field pea (cv. Radley)): 0.23 a g/plant; Emergence ([10]; Field pea (cv. Radley)): 68.1 a %; Fresh wt. ([10]; Field pea (cv. Radley)): 2.2 a g/plant; Root rot severity ([10]; Field pea (cv. Radley)): 3.2 ab 0-9; effect on dry weight compared to the nontreated control ([10]; greenhouse experiments): Neither ACM941 nor thiram fungicide showed an increase in dry weight; Emergence ([11]; 1998, Carneval): 88.1 a; Yield ([11]; 1998, Carneval): 6122 a; Emergence ([11]; 1998, Radley): 91.9 a; Yield ([11]; 1998, Radley): 5110 a; Emergence ([11]; 1999, Carneval): 90.3 a; Yield ([11]; 1999, Carneval): 4986 a; Emergence ([11]; 1999, Radley): 81.0 a; Yield ([11]; 1999, Radley): 4315 a; Emergence ([12]; 1996, AC Tamor): 76.1 a; Yield ([12]; 1996, AC Tamor): 5374 a; Emergence ([12]; 1996, Radley): 81.4 a; Yield ([12]; 1996, Radley): 3674 a; Emergence ([12]; 1997, AC Tamor): 66.2 a; Yield ([12]; 1997, AC Tamor): 5600 a; Emergence ([12]; 1997, Radley): 65.7 b; Yield ([12]; 1997, Radley): 3379 a; Dry wt. ([13]; Barley, Argyle): 0.32 a g/plant; Emergence ([13]; Barley, Argyle): 93.9 a %; Fresh wt. ([13]; Barley, Argyle): 1.24 a g/plant; Root rot incidence ([13]; Barley, Argyle): 10.8 b %; Root rot severity ([13]; Barley, Argyle): 0.5 b 0-9; Dry wt. ([13]; Barley, Manley): 0.22 a g/plant; Emergence ([13]; Barley, Manley): 84.3 a %; Fresh wt. ([13]; Barley, Manley): 1.04 a g/plant; Root rot incidence ([13]; Barley, Manley): 77.8 a %; Root rot severity ([13]; Barley, Manley): 4.2 ab 0-9; Dry wt. ([13]; Wheat, Katepwa): 0.23 a g/plant; Emergence ([13]; Wheat, Katepwa): 70.7 a %; Fresh wt. ([13]; Wheat, Katepwa): 0.96 a g/plant; Root rot incidence ([13]; Wheat, Katepwa): 12.5 ab %; Root rot severity ([13]; Wheat, Katepwa): 0.7 ab 0-9; Dry wt. ([13]; Wheat, Plenty): 0.16 a g/plant; Emergence ([13]; Wheat, Plenty): 88.4 a %; Fresh wt. ([13]; Wheat, Plenty): 0.79 a g/plant; Root rot incidence ([13]; Wheat, Plenty): 10.1 b %; Root rot severity ([13]; Wheat, Plenty): 0.6 b 0-9; Dry wt. ([13]; Wheat, Sceptre): 0.14 a g/plant; Emergence ([13]; Wheat, Sceptre): 52.4 a %; Fresh wt. ([13]; Wheat, Sceptre): 0.65 a g/plant; Root rot incidence ([13]; Wheat, Sceptre): 24.7 b %; Root rot severity ([13]; Wheat, Sceptre): 1.1 b 0-9; reduced root rot incidence by [13, 18]: 31%; reduced root rot severity by [13, 18]: 38%
